Test results published in paper PMC10066365, “Nemacol is a small molecule inhibitor of C. elegans vesicular acetylcholine transporter with anthelmintic potential” (Nature Communications, 2023).
Where “and” joins values, the source holds several entries; their conditions need not be identical. Equal entries are not always repeated.

System: C. elegans
Assay: C. elegans motor phenotype scoring on solid media (Punc/jerky-unc, coiled, paralyzed), wild-type young adults
Assay type: in vivo, Caenorhabditis elegans
Conditions: for atypical locomotion (number of animals) / no phene (number of animals) / paralyzed (number of animals) / any phene: mean % fraction of young adults exhibiting any phenotype (coiled, jerky-Unc or paralyzed) / coiled (number of animals): one hour; for atypical locomotion (number of animals) / no phene (number of animals) / paralyzed (number of animals) / coiled (number of animals): young adults, 20 animals per trial, single technical replicate; for any phene: mean % fraction of young adults exhibiting any phenotype (coiled, jerky-Unc or paralyzed): mean of three biological replicates; for Fraction Coiled / Fraction Jerky-Unc / Fraction No Phenotype / Fraction Parayzed: 60 min
[1] = 15 µM, N2 adult worms, Averages of 3 biological repeats
[2] = 15 µM, N2 adult worms, Bio Rep 1
[3] = 15 µM, N2 adult worms, Bio Rep 3
[4] = 15 µM, N2 adult worms, Bio rep 2
[5] = 30 µM, N2 adult worms, Averages of 3 biological repeats
[6] = 30 µM, N2 adult worms, Bio Rep 1
[7] = 30 µM, N2 adult worms, Bio Rep 3
[8] = 30 µM, N2 adult worms, Bio rep 2
[9] = 60 µM, N2 adult worms, Averages of 3 biological repeats
[10] = 60 µM, N2 adult worms, Bio Rep 1
[11] = 60 µM, N2 adult worms, Bio Rep 3
[12] = 60 µM, N2 adult worms, Bio rep 2
[13] = 120 µM, N2 adult worms, Averages of 3 biological repeats
[14] = 120 µM, N2 adult worms, Bio Rep 1
[15] = 120 µM, N2 adult worms, Bio Rep 3
[16] = 120 µM, N2 adult worms, Bio rep 2
[17] = 240 µM, N2 adult worms, Averages of 3 biological repeats
[18] = 240 µM, N2 adult worms, Bio Rep 1
[19] = 240 µM, N2 adult worms, Bio Rep 3
[20] = 240 µM, N2 adult worms, Bio rep 2
[21] = N2, 15 µM, adult worms, average of 3 biological repeats
[22] = N2, 30 µM, adult worms, average of 3 biological repeats
[23] = N2, 60 µM, adult worms, average of 3 biological repeats
[24] = N2, 120 µM, adult worms, average of 3 biological repeats
[25] = N2, 240 µM, adult worms, average of 3 biological repeats

O[C@@H]1CCCC[C@H]1N1CCC(c2ccccc2)CC1 (racemic) [vesamicol, reference compound]
atypical locomotion (number of animals) (3.75uM): 0 | no phene (number of animals) (3.75uM): 20 | paralyzed (number of animals) (3.75uM): 0 | any phene: mean % fraction of young adults exhibiting any phenotype (coiled, jerky-Unc or paralyzed) (3.75uM): 0% | Fraction Coiled [1]: 0.00 | Fraction Jerky-Unc [1]: 0.17 | Fraction No Phenotype [1]: 0.83 | Fraction Parayzed [1]: 0.00 | Fraction Jerky-Unc [2]: 0.2778 | Fraction No Phenotype [2]: 0.72 | Fraction Parayzed [2]: 0 | Fraction Coiled [3]: 0.00 | Fraction Jerky-Unc [3]: 0.1667 | Fraction No Phenotype [3]: 0.83 | Fraction Parayzed [3]: 0 | Fraction Coiled [4]: 0.00 | Fraction Jerky-Unc [4]: 0.05556 | Fraction No Phenotype [4]: 0.94 | Fraction Parayzed [4]: 0 | atypical locomotion (number of animals) (15uM): 0 | coiled (number of animals) (15uM): 0 | no phene (number of animals) (15uM): 20 | paralyzed (number of animals) (15uM): 0 | any phene: mean % fraction of young adults exhibiting any phenotype (coiled, jerky-Unc or paralyzed) (15uM): 0% | Fraction Coiled [5]: 0.00 | Fraction Jerky-Unc [5]: 0.41 | Fraction No Phenotype [5]: 0.59 | Fraction Parayzed [5]: 0.00 | Fraction Coiled [6]: 0.00 | Fraction Jerky-Unc [6]: 0.3889 | Fraction No Phenotype [6]: 0.61 | Fraction Parayzed [6]: 0 | Fraction Coiled [7]: 0.00 | Fraction Jerky-Unc [7]: 0.4444 | Fraction No Phenotype [7]: 0.56 | Fraction Parayzed [7]: 0 | Fraction Coiled [8]: 0.00 | Fraction Jerky-Unc [8]: 0.3889 | Fraction No Phenotype [8]: 0.61 | Fraction Parayzed [8]: 0 | Fraction Coiled [9]: 0.0566 | Fraction Jerky-Unc [9]: 0.62 | Fraction No Phenotype [9]: 0.32 | Fraction Parayzed [9]: 0.00 | Fraction Coiled [10]: 0.0556 | Fraction Jerky-Unc [10]: 0.7222 | Fraction No Phenotype [10]: 0.22 | Fraction Parayzed [10]: 0 | Fraction Coiled [11]: 0.06 | Fraction Jerky-Unc [11]: 0.5294 | Fraction No Phenotype [11]: 0.41 | Fraction Parayzed [11]: 0 | Fraction Coiled [12]: 0.0556 | Fraction Jerky-Unc [12]: 0.6111 | Fraction No Phenotype [12]: 0.33 | Fraction Parayzed [12]: 0 | atypical locomotion (number of animals) (60uM): 0 and 1 and 3 and 5 and 2 | coiled (number of animals) (60uM): 1 and 0 | no phene (number of animals) (60uM): 19 and 18 and 17 and 15 | paralyzed (number of animals) (60uM): 0 | any phene: mean % fraction of young adults exhibiting any phenotype (coiled, jerky-Unc or paralyzed) (60uM): 11.6667% | Fraction Coiled [13]: 0.0556 | Fraction Jerky-Unc [13]: 0.74 | Fraction No Phenotype [13]: 0.17 | Fraction Parayzed [13]: 0.037 | Fraction Coiled [14]: 0.11 | Fraction Jerky-Unc [14]: 0.7778 | Fraction No Phenotype [14]: 0.0556 | Fraction Parayzed [14]: 0.05556 | Fraction Coiled [15]: 0.00 | Fraction Jerky-Unc [15]: 0.7222 | Fraction No Phenotype [15]: 0.28 | Fraction Parayzed [15]: 0 | Fraction Coiled [16]: 0.0556 | Fraction Jerky-Unc [16]: 0.7222 | Fraction No Phenotype [16]: 0.17 | Fraction Parayzed [16]: 0.05556 | Fraction Coiled [17]: 0.11 | Fraction Jerky-Unc [17]: 0.80 | Fraction No Phenotype [17]: 0.0741 | Fraction Parayzed [17]: 0.0185 | Fraction Coiled [18]: 0.11 | Fraction Jerky-Unc [18]: 0.8333 | Fraction No Phenotype [18]: 0.00 | Fraction Parayzed [18]: 0.05556 | Fraction Coiled [19]: 0.11 | Fraction Jerky-Unc [19]: 0.7222 | Fraction No Phenotype [19]: 0.17 | Fraction Parayzed [19]: 0 | Fraction Coiled [20]: 0.11 | Fraction Jerky-Unc [20]: 0.8333 | Fraction No Phenotype [20]: 0.0556 | Fraction Parayzed [20]: 0 | EC50 (Caenorhabditis elegans, 1 h): 38.6 ± 3.5 µM | Fraction Coiled [21]: 0.00 | Fraction Jerky-Unc [21]: 0.17 | Fraction No Phenotype [21]: 0.83 | Fraction Parayzed [21]: 0.00 | Fraction Coiled [22]: 0.00 | Fraction Jerky-Unc [22]: 0.41 | Fraction No Phenotype [22]: 0.59 | Fraction Parayzed [22]: 0.00 | Fraction Coiled [23]: 0.0566 | Fraction Jerky-Unc [23]: 0.62 | Fraction No Phenotype [23]: 0.32 | Fraction Parayzed [23]: 0.00 | Fraction Coiled [24]: 0.0556 | Fraction Jerky-Unc [24]: 0.74 | Fraction No Phenotype [24]: 0.17 | Fraction Parayzed [24]: 0.037 | Fraction Coiled [25]: 0.11 | Fraction Jerky-Unc [25]: 0.80 | Fraction No Phenotype [25]: 0.0741 | Fraction Parayzed [25]: 0.0185 | fold difference in C. elegans EC50, Vesamicol vs Nemacol-1 (Vesamicol EC50 higher, Nemacol-1 more potent): 5.4 fold
